Paper PMC8833476, “Short-Term Effects of Temperature and Thyrotropin-Releasing Hormone Stimulation on Adrenocorticotropin Stability in Horses” (Animals : an Open Access Journal from MDPI, 2022)

Key:
[1] = Short-term stability of immunoreactive ACTH in whole blood stored 1 h at 4, 20, 30, 40 or 70 °C; type: in vitro ADME, horse; conditions: for Mean change of immunoreactive ACTH concentration after 1 h: whole blood 1 h at 20 °C vs 4 °C; for ACTH concentration as percentage of the reference sample (4 °C = 100%), range over horses: equine EDTA whole blood
Method: For horses that underwent TRH stimulation, blood was collected 30 min after receiving 1 mg of TRH intravenously (Sigma-Aldrich Pty Ltd. (subsidiary of Merck), North Ryde BC, New South Wales, Australia). Blood was sampled between 7 and 8 am. All procedures were approved by the University of Queensland Animal Ethics Committee, approval number SVS/474/17, 22nd December 2017.
Samples were taken to the laboratory within 1 h of collection. They were then stored as whole blood either in a temperature-monitored refrigerator (4 °C), in a temperature-controlled room (20 °C), or in incubators (30, 40, or 70 °C) for 1 h. Samples were then centrifuged at 3500× g at 4 °C for 10 min. The plasma was separated and analyzed within 2 h of collection from the horse. […] Due to the necessity of analyzing all samples within a 2-h window from collection, and limitations on the speed of the analyzer, the 15 horses were sampled over a 4-day period. The samples from each horse were run using the same kit.
The reference sample was defined as the sample stored at 4 °C.

[2] = delaying centrifugation of horse blood by 1 h; cited from earlier work
[3] = room temperature (21 °C), analyzed prior to 8 h; mostly PPID-negative horses; cited from earlier work
Description: In contrast, our study found t ...

[4] = human blood samples at room temperature; cited from earlier work

| Mean change of immunoreactive ACTH concentration after 1 h ([1]; PPID horses) [%] | Bland–Altman mean bias of ACTH concentration, 4 versus 20 °C ([1]; equine EDTA whole blood stored 1 h at 20 °C vs 4 °C reference, then centrifuged, plasma immunoreactive ACTH by Immulite 1000 chemiluminescent assay, 15 horses) [pg/mL] | Bland–Altman mean bias of ACTH concentration, 4 versus 30 °C ([1]; equine EDTA whole blood stored 1 h at 30 °C vs 4 °C reference, Immulite 1000 chemiluminescent assay, 15 horses) [pg/mL] | Bland–Altman mean bias of ACTH concentration, 4 versus 40 °C ([1]; equine EDTA whole blood stored 1 h at 40 °C vs 4 °C reference, Immulite 1000 chemiluminescent assay, 15 horses) [pg/mL] | Bland–Altman mean bias of ACTH concentration, 4 versus 70 °C ([1]; equine EDTA whole blood stored 1 h at 70 °C vs 4 °C reference, Immulite 1000 chemiluminescent assay, only 9 of 15 samples analysable) [pg/mL] | ACTH concentration as percentage of the reference sample (4 °C = 100%), range over horses ([1]; 1 h at 20 °C, Immulite 1000 chemiluminescent assay, 15 horses (PPID and non-PPID, basal and post-TRH), not significant) [%] | ACTH concentration as percentage of the reference sample (4 °C = 100%), range over horses ([1]; 1 h at 30 °C, Immulite 1000, 15 horses, not significant) [%] | ACTH concentration as percentage of the reference sample (4 °C = 100%), range over horses ([1]; 1 h at 40 °C, Immulite 1000, 15 horses, not significant) [%] | ACTH concentration as percentage of the reference sample (4 °C = 100%), range over horses ([1]; 1 h at 70 °C, Immulite 1000, 9 of 15 samples analysable (solidification), p = 0.001) [%] | Mean change of immunoreactive ACTH concentration after 1 h ([1]; non-PPID horses) [%] | Measured ACTH concentration, reference sample ([1]; one non-PPID horse, post-TRH stimulation, whole blood 1 h at 4 °C, single horse) [pg/mL] | Measured ACTH concentration after storage ([1]; one non-PPID horse, post-TRH stimulation, whole blood 1 h at 20 °C, single horse) [pg/mL] | Measured ACTH concentration after storage ([1]; one non-PPID horse, post-TRH stimulation, whole blood 1 h at 40 °C, single horse) [pg/mL] | Deviation of measured ACTH concentration above the same sample stored at 4 °C ([1]; whole blood 1 h at 20 °C, maximum over horses) | Substance | Mean reduction in the measured ACTH concentration [2] [pg/mL] | Difference between samples kept at room temperature and at 4 °C [3] | Time at room temperature prior to centrifugation at which the measured ACTH concentration is altered [4] [h] |
| --- | --- | --- | --- | --- | --- | --- | --- | --- | --- | --- | --- | --- | --- | --- | --- | --- | --- |
| 5 | -2.8 | -1.38 | -0.16 | 10.1 | 84.3 to 122.1 | 89.4 to 115.6 | 86.5 to 116.3 | 72 to 94.4 | 12 | 60.9 | 69.1 | 70.8 | up to 22% | adrenocorticotropic hormone [ACTH] | 11.6 | no difference | – |
| – | – | – | – | – | – | – | – | – | – | – | – | – | – | human ACTH: endogenous human ACTH, reported as highly unstable due to proteolytic degradation (SYSMEHFRWGKPVGKKRRPVKVYPNGAEDESAEAFPLEF; Corticotropin; UniProt P01189 138-176, looked up) | – | – | ≥ 4 |
